Results on one substance are retold here after article PMC10580319, “Quantitative Imaging of the Action of vCPP2319, an Antimicrobial Peptide from a Viral Scaffold, against Staphylococcus aureus Biofilms of a Clinical Isolate” (ACS Infectious Diseases, 2023).

Series [1] is described as follows: Dynamic light scattering, self-assembly. As to conditions: DLS, in PBS, preincubated 4 h at 25 °C, 50, 100, 200 and 500 μM, two independent experiments (Figure S2). It counts as physicochemical. Here is the method:
DLS experiments were carried out on a Zetasizer Nano ZS instrument from Malvern (Worcestershire, UK). vCPP2319, in PBS, was preincubated for 4 h, at 25 °C, at different concentrations (50, 100, 200, and 500 μM). The Z-average hydrodynamic diameter was measured using DLS in particle size analysis mode. For each experiment, a single measurement, corresponding to an autocorrelation curve averaged from a minimum of 20 runs, was performed. All measurements were performed at 25 °C. Data were obtained from two independent experiments.

Another series is described as follows: in vitro. Type of series: in vitro ADME, human. As to conditions: 37 °C. The method, then:
vCPP2319 at final concentrations of 50, 100, 200, and 500 μM was incubated with 25% (v/v in H2O) human serum (Sigma-Aldrich) at 37 °C, with gentle swirling. At different time points (0, 1, 5, 10, 30, 60 120, 360, and 1440 min), 120 μL aliquots were taken and treated with 20 μL of 5% perchloric acid (v/v in H2O) for 30 min at 4 °C, to stop the proteolytic reaction. To determine the maximum peptide intensity (100% intact peptide; t0), serum proteins were first precipitated, followed by the addition of the peptide. Controls of serum without peptide and peptide not incubated in serum were also included in the assay. Samples were next centrifuged at 13 000g for 10 min to remove serum proteins. The supernatants were analyzed by reversed-phase HPLC (RP-HPLC) and LC–mass spectrometry (LC-MS). The percentage of intact peptide was calculated by RP-HPLC peak integration, expressed as percent of the amount at t0, and data were fitted to a monoexponential decay model using GraphPad Prism 7.0 to estimate the peptide half-life (t1/2). Analytical RP-HPLC was performed on a LC-20AD instrument (Shimadzu, Kyoto, Japan) equipped with a Luna C18 column (4.6 × 50 mm, 3 μm; Phenomenex, Torrance, CA, USA) using linear gradients of solvent B (0.036% (v/v) trifluoroacetic acid (TFA) in acetonitrile (ACN)) into A (0.045% (v/v) TFA in H2O) over 15 min, at a flow rate of 1 mL/min and UV detection at 220 nm. MS analysis was performed on an LC-MS 2010EV instrument (Shimadzu) fitted with an XBridge C18 column (4.6 mm × 150 mm, 3.5 μm, Waters, Cerdanyola del Valles, Spain), eluting with linear gradients of F (0.08% (v/v) formic acid [FA] in ACN) into E (0.1% (v/v) FA in H2O) over 15 min at 1 mL/min flow rate.[45]
1 - vCPP2319 stability in human serum
Figure S1 – vCPP2319 stability in human serum. Variable concentrations of the peptide were incubated with 25% (v/v in H2O) human serum for 0, 30, 60 and 120 min.
The intact peptide was separated from degradation products by HPLC using a 0 – 95% ACN gradient over 15 min. Afterwards, the percentage of intact peptide (Figure 1C) was calculated by chromatograms peak integration.
(1 picture or pasted object on this page, not shown here)

Series [2] concerns S. aureus clinical isolate biofilms. The series is described as follows: Crystal violet binding assay, biofilm biomass, with global mass and density ratios. It counts as cell-based, Staphylococcus aureus. Here is the method: (§1) The effect of vCPP2319 on 24 h-preformed S. aureus biofilms was evaluated using three distinct methods, as previously described:[24] the metabolic activity and viability of biofilm-embedded cells was determined using a resazurin reduction fluorometric assay and a colony count assay, respectively. The total biofilm biomass was quantified by using a crystal violet assay.
Crystal violet is a basic dye that binds to negatively charged molecules, such as those in biofilms EPS matrix and on bacterial membrane surface.[51]S. aureus suspensions at 1 × 10^6 CFU/mL were incubated in a 96-well microtiter clear flat-bottomed polystyrene plate (Corning) for 24 h at 37 °C. […] (EC 3.2.1.1), ranging from 0.0078 to 0.5 mg/mL, for 4 h at 37 °C. Untreated biofilms were used as a control. Biofilms were washed twice with MHB and incubated with 0.25% (v/v in sterile Milli-Q water) crystal violet (Sigma-Aldrich) for 30 min at room temperature. After each sample was washed three times with MHB, crystal violet was solubilized with 95% (v/v) ethanol (Carlo Erba Reagents S.A.S., France) by repeated pipetting. Biofilm biomass was quantified by measuring the absorbance at 590 nm of each sample in an infinite M200 microplate reader (Tecan). The percentage of crystal violet staining was determined relative to the control after blank (0.25% (v/v) crystal violet in sterile Milli-Q water) correction.
The mean emission fluorescence intensity of WGA integrated over a plane xy at a specific depth, z, If,WGA,xy, is proportional to the mass of polysaccharides in that plane.

Series [3] has the same test system. Description: Resazurin reduction fluorometric assay on 24 h-preformed biofilms. It counts as cell-based, Staphylococcus aureus. As to conditions: 4 h treatment, only at 25 and 50 μM. The method, then:
as §1
(§2) Resazurin, the active compound in alamarBlue reagent (Invitrogen), is a blue dye that can be reduced to a pink fluorescent intermediate, resorufin, as a result of cells metabolic activity.[48]S. aureus suspensions were prepared to a final concentration of 1 × 10^6 CFU/mL and incubated in a sterile 96-well microtiter black flat-bottomed polystyrene plate (Corning) for 24 h at 37 °C. […] After washing the biofilms twice with MHB, alamarBlue reagent was added at a final concentration 10% (v/v in MHB) to each sample and its reduction was monitored by measuring the fluorescence intensity (excitation and emission wavelengths were 530 and 590 nm, respectively) of the samples every 5 min during 2 h at 37 °C, in an infinite M200 microplate reader (Tecan). […] The percentage of resazurin reduction was determined relatively to the control, after blank (10% (v/v) alamarBlue reagent in MHB) correction.

The test system of series [4] is S. aureus ATCC 6538 biofilms. Described as above. It counts as cell-based, Staphylococcus aureus. As to conditions: 0.78 to 50 μM, 4 h and 24 h treatment, dose-dependent. Here is the method: as §1, §2

Where no end group is shown, it is not given here.

For the substance WRRRYRRWRRRRRWRRRPRR-NH2 [vCPP2319], the self-assembly entry in series [1] was “self-assemble into nanoparticles”. In addition, in the series “in vitro” (50 μM peptide, 25% (v/v in H2O) human serum, RP-HPLC peak integration, monoexponential decay fit, 95% CI 139–401, read-out: half-life (t1/2) in human serum), the half-life at 50 μM is 3.45 h. Moreover, the half-life at 100 μM in “in vitro” (100 μM peptide, 25% (v/v in H2O) human serum, RP-HPLC peak integration, monoexponential decay fit, 95% CI 234–542, read-out: half-life (t1/2) in human serum) came out at 5.43 h. Further, in the series “in vitro” (200 μM peptide, 25% (v/v in H2O) human serum, RP-HPLC peak integration, monoexponential decay fit, 95% CI 327–490, read-out: half-life (t1/2) in human serum), the half-life at 200 μM was 6.53 h. Further, in “in vitro” (500 μM peptide, 25% (v/v in H2O) human serum, RP-HPLC peak integration, monoexponential decay fit, 95% CI 368–2107, read-out: half-life (t1/2) in human serum), the half-life at 500 μM is 10.4 h. Further, the amount remaining at 1 h in “in vitro” (after 1 h incubation, all concentrations studied (50, 100, 200, 500 μM), 25% (v/v) human serum, RP-HPLC, read-out: intact peptide remaining) is over 60%. Also, the biofilm biomass reduction result in series [2] (24 h-preformed biofilms, 4 h treatment, crystal violet, relative to untreated biofilm) was “approximately 30%”. Besides, in series [2] (fold variation relative to untreated biofilm, fraction of crystal violet absorbance retained), the “mi/mcontrol (global) eq 7” value came out at 0.7. Further, the “ρi/ρcontrol (global) eq 8” value in series [2] (fold variation relative to untreated biofilm, from crystal violet data and biofilm volume, for both agents fi assumed as for α-amylase alone) is recorded as 1.2. Besides, the “metabolic activity of biofilm-embedded cells” value in series [3] is “significantly reduced”; in series [4], “significant reduction”.
